Data published in patent US12590066B2, “Fused-heterocyclyl-carbonohydrazonoyl dicyanide compounds and use thereof” (KOREA INSTITUTE OF SCIENCE AND TECHNOLOGY, priority 2020, dated 2026).

Tests used:
[1] = target: T1, CYP2C9 (Homo sapiens, UniProt P11712); assay: Inhibitory effect on CYP coenzyme activity, human liver microsomes; assay type: in vitro ADME; conditions: 10 μM compound, human liver microsomes 0.25 mg/mL, substrate diclofenac, 15 minutes
T1 construct: human liver microsomes (0.25 mg/mL); from tissue; host or cells: human liver microsomes
Method: (§1) The inhibitory effects of the compounds prepared according to Examples 1 to 57 on CYP coenzyme activity were identified. Specifically, human liver microsomes (0.25 mg/mL), a 0.1 M phosphate buffer solution (pH 7.4), a substrate drug cocktail of five types of drug metabolism enzymes (50 μM phenacetin, 10 μM diclofenac, 100 μM S-mephenytoin, 5 μM dextromethorphan, and 2.5 μM midazolam), and the compound at a concentration of 0 μM or 10 μM were mixed and pre-cultured at 37° C. for 5 minutes, and then further cultured at 37° C. for 15 minutes together with an NADPH generation system solution added thereto. Thereafter, the reaction was terminated by adding an acetonitrile solution containing an internal standard material (terfenadine) and centrifuged for 5 minutes (14,000 rpm, 4° C.), and then a supernatant was injected into an LC-MS/MS system for simultaneous analysis of metabolites of the substrate drugs to thereby evaluate the inhibitory effects on drug metabolism.
(§2) Metabolites of each CYP coenzyme indicator drug generated through the reaction were analyzed using the Shimadzu Nexera XR system and TSQ Vantage (Thermo). In an HPLC column, Kinetex C18 (2.1 mm×100 mm, 2.6 μm, particle size; Phenomenex, USA) was used, and mobile phases were (A) distilled water containing 0.1% formic acid and (B) acetonitrile containing 0.1% formic acid, and a gradient program shown in Table 3 was applied thereto.
(§3) The generated metabolites were quantified using a multiple reaction monitoring (MRM) quantification mode, and Xcalibur (version 1.6.1) was used for data analysis. In order to express inhibitory effects of the novel compound prepared according to the examples of the present invention on CYP coenzyme activity, CYP coenzyme activities (%) with respect to the control group not treated with the compound are shown in Table 4 below.

[2] = target: T2, CYP3A4 (Homo sapiens, UniProt P08684); assay: as above; assay type: in vitro ADME; conditions: 10 μM compound, human liver microsomes 0.25 mg/mL, substrate midazolam, 15 minutes
T2 construct: human liver microsomes (0.25 mg/mL); from tissue; host or cells: human liver microsomes
Method: as §1, §2, §3

[3] = Liver microsome stability; assay type: in vitro ADME; conditions: 1 μM compound, 37° C., 30 minutes, NADPH; for Dog (%) amount of substrate remaining after the reaction: dog liver microsomes 0.25 mg/mL; for Human (%) amount of substrate remaining after the reaction: human liver microsomes 0.25 mg/mL; for Mouse (%) amount of substrate remaining after the reaction: mouse liver microsomes 0.25 mg/mL; for Rat (%) amount of substrate remaining after the reaction: rat liver microsomes 0.25 mg/mL
Method: The stability of liver microsomes due to the compounds prepared according to Examples 1 to 57 was confirmed. Specifically, four types of liver microsomes (human, dog, rat, and mouse, each 0.25 mg/mL), a 0.1 M phosphate buffer solution (pH 7.4), and each of the compounds at a concentration of 1 μM were mixed and pre-cultured at 37° C. for 5 minutes and further cultured at 37° C. for 30 minutes together with an NADPH generation system solution added thereto. Thereafter, the reaction was terminated by adding an acetonitrile solution containing an internal standard material (chloropropamide) and centrifuged for 5 minutes (14,000 rpm, 4° C.), and then a supernatant was injected into an LC-MS/MS system for analysis of substrate drugs to thereby evaluate metabolic stability due to 8 types of compounds.
The amount of the substrate remaining after the reaction was analyzed using the Shimadzu Nexera XR system and TSQ Vantage (Thermo). In an HPLC column, Kinetex XB-C18 (2.1 mm×100 mm, particle size of 2.6 μm; Phenomenex, USA) was used, and mobile phases were (A) distilled water containing 0.1% formic acid and (B) acetonitrile containing 0.1% formic acid. Analyst software (version 1.6.3) and Xcalibur (version 1.6.1) were used for data analysis.

[4] = target: T3, tau protein (Homo sapiens, UniProt P10636); assay: Tau-BiFC cell model, inhibition of Forskolin-induced tau protein aggregation; assay type: cell-based; conditions: Forskolin 30 μM, 48 hours; for Tau BiFC in cells Response (% @10 μM): 10 μM compound, Forskolin-only group = 100% tau protein-aggregated state; for IC50: tau-BiFC cells
T3 construct: BiFC fluorescent-protein fragments (type and halves not specified); expressed in transfected cells
Method: In order to select novel tau protein aggregation-inhibiting substances, tau-BiFC cell model, in which formation of tau oligomers in living cells is easily observed, was used. Tau-BiFC cells were aliquoted into a 384-well plate. On the next day, the cells were treated with each of the compounds prepared according to Examples 1 to 57 at concentrations of 1 μM, 3 μM, and 10 μM, together with Forskolin (at a treatment concentration of 30 μM), which is a compound inducing tau protein aggregation by activating tau phosphorylase PKA. After 48 hours, nuclei in the cells were stained using Hoechst (at a treatment concentration of 2 μg/mL), and BiFC fluorescence intensity was automatically measured using Operetta (PerkinElmer) to count stained nuclei in each well out of the entire well plate. The group treated only with Forskolin, which induces tau protein aggregation, was set to a reference point of a 100% tau protein-aggregated state, and the effects of the compounds were confirmed using the equation “BiFC fluorescence intensity due to compound synthesized according to embodiment of present invention/(fluorescence intensity of control group treated only with Forskolin inducing tau protein aggregation−fluorescence intensity of untreated control group)×100”. Furthermore, the degree of cytotoxicity induced by the newly synthesized compound was also measured based on the 100% cell viability of the group treated only with Forskolin as a reference, and the cytotoxicity value of each compound was calculated using the equation “(number of stained nuclei in group treated with compound/number of stained nuclei in group treated with Forskolin)×100”. Based on the treatment results, substances inhibiting intracellular tau protein aggregation were selected from a series of candidate groups showing a tau protein aggregation inhibition rate of 70% or more and cell viability of 100% at a compound treatment concentration of 10 μM or more.
In order to evaluate dose-dependent tau protein aggregation inhibition effects of the compounds selected according to Experimental Example 1 on tau protein aggregation, tau-BiFC cells were treated with the selected compounds at concentrations of 0.03 μM, […], 0.3 μM, 1 μM, 3 μM, 10 μM, and 30 μM, respectively, together with Forskolin (at a treatment concentration of 30 μM), which is a tau protein aggregation-inducing substance. After 48 hours, tau protein aggregation reaction and degrees of cytotoxicity were analyzed by observing images of the cells. IC50 and toxicity of the compounds were analyzed by way of nonlinear regression analysis of prism software (Graph Pad).

T2 sequence (P08684 whole entry): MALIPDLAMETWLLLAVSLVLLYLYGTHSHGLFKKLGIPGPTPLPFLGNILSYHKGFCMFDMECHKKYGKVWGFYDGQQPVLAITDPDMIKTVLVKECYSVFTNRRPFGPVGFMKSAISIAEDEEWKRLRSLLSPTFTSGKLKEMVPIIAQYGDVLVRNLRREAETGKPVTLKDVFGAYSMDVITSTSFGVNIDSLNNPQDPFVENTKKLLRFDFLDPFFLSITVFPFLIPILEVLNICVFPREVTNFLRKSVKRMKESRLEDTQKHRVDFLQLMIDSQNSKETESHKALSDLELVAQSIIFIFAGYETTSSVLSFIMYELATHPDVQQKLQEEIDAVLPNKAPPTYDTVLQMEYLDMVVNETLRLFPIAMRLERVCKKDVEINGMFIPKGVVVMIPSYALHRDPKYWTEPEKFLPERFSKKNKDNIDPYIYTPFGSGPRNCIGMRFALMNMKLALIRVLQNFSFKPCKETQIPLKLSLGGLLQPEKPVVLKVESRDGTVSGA
T3 sequence (P10636 1-441 isoform P10636-8): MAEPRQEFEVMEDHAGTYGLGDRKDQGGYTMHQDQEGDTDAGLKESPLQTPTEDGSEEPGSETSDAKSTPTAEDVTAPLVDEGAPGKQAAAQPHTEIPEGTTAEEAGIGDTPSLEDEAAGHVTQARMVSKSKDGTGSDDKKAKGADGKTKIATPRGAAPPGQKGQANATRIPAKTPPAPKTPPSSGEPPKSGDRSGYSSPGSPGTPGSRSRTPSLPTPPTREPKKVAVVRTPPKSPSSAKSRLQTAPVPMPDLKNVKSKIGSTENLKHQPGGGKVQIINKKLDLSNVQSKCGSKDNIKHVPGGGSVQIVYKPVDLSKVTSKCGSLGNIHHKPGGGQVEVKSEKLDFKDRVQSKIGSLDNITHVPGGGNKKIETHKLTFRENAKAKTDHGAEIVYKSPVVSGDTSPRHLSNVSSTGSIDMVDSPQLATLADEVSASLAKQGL
T1 sequence (P11712 whole entry): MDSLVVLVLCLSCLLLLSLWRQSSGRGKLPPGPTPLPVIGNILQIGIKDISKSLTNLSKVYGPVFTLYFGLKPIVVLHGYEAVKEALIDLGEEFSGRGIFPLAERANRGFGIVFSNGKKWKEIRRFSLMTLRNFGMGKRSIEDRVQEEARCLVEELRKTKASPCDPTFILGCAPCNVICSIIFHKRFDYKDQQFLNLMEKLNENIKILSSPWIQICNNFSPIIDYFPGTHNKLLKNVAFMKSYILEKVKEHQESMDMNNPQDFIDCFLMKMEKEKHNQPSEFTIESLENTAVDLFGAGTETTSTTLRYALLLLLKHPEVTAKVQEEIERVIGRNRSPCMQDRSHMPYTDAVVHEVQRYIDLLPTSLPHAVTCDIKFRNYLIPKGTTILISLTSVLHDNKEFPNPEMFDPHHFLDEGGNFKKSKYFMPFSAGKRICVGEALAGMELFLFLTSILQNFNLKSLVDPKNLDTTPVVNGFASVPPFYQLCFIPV

Structure (SMILES)	CYP2C9 coenzyme activity (%) with respect to control group not treated [1]	CYP3A4 coenzyme activity (%) with respect to control group not treated [2]	Dog (%) amount of substrate remaining after the reaction [3]	Human (%) amount of substrate remaining after the reaction [3]	Mouse (%) amount of substrate remaining after the reaction [3]	Rat (%) amount of substrate remaining after the reaction [3]	Tau BiFC in cells Response (% @10 μM) [4]	IC50 [4]
Cn1ccc2ccc(NN=C(C#N)C#N)cc2c1=O [Compound 2, (2-methyl-1-oxo-1,2-dihydroisoquinolin-7-yl)carbonohydrazonoyl dicyanide]	77.9%	89%	2.5%	27%	63.4%	88%	0%	–
Cn1c(=O)sc2cc(NN=C(C#N)C#N)ccc21 [Compound 14, (3-methyl-2-oxo-2,3-dihydrobenzo[d]thiazol-6-yl)carbonohydrazonoyl dicyanide]	19.5%	91.2%	73.3%	98.3%	59.6%	87.1%	0%	0.06 µM
CC(C)n1c(=O)n(C(C)C)c2cc(NN=C(C#N)C#N)ccc21 [Compound 23, (1,3-diisopropyl-2-oxo-2,3-dihydro-1H-benzo[d]imidazol-5-yl)carbonohydrazonoyl dicyanide]	46.4%	79.6%	86.1%	83.1%	72.4%	77.7%	0%	0.1 µM
N#CC(C#N)=NNc1ccc2[nH]c(=O)sc2c1 [Compound 13, (2-oxo-2,3-dihydrobenzo[d]thiazol-6-yl)carbonohydrazonoyl dicyanide]	23.3%	92.7%	>100%	>100%	>100%	>100%	0.8%	0.2 µM
CC(C)n1c(=O)oc2ccc(NN=C(C#N)C#N)cc21 [Compound 29, (3-isopropyl-2-oxo-2,3-dihydrobenzo[d]oxazol-5-yl)carbonohydrazonoyl dicyanide]	4.7%	>100%	–	>100%	88.9%	96.4%	−31%	0.07 µM
CC(C)n1c(=O)n(C)c2ccc(NN=C(C#N)C#N)cc21 [Compound 36, (3-isopropyl-1-methyl-2-oxo-2,3-dihydro-1H-benzo[d]imidazol-5-yl)carbonohydrazonoyl dicyanide]	36.6%	95.8%	–	>100%	89.4%	86.4%	−57%	0.02 µM
CC(C)n1c(=O)n(C2CC2)c2ncc(NN=C(C#N)C#N)cc21 [Compound 53, (3-cyclopropyl-1-isopropyl-2-oxo-2,3-dihydro-1H-imidazo[4,5-b]pyridin-6-yl)carbonohydrazonoyl dicyanide]	75.3%	97.8%	–	84.6%	83.5%	82.1%	−39%	0.16 µM
CC(C)n1ccc2c(NN=C(C#N)C#N)cccc2c1=O [Compound 6, (2-isopropyl-1-oxo-1,2-dihydroisoquinolin-5-yl)carbonohydrazonoyl dicyanide]	8.7%	81.4%	95%	94.2%	87%	>100%	0%	0.7 µM
COc1cc(NN=C(C#N)C#N)cc2c1n(C)c(=O)n2C [Compound 33, (7-methoxy-1,3-dimethyl-2-oxo-2,3-dihydro-1H-benzo[d]imidazol-5-yl)carbonohydrazonoyl dicyanide]	69.9%	97.6%	–	93.2%	78.7%	85.5%	−43%	0.005 µM
N#CC(C#N)=NNc1ccc2[nH]c(=O)oc2c1 [Compound 15, (2-oxo-2,3-dihydrobenzo[d]oxazol-6-yl)carbonohydrazonoyl dicyanide]	59.4%	98.3%	97.1%	74.2%	>100%	92.5%	5.5%	8.4 µM
